Reference: publication PMC7403104 (Antiviral Research, 2020)

What was measured:
[1] = target: YFV polymerase (NS5 RdRp) (Yellow fever virus, UniProt P03314); experiment: biochemical
[2] = system: flaviviral polymerases (DENV3, TBEV, JEV, WNV, ZIKV, YFV); format: biochemical, flaviviruses
[3] = system: six flaviviral polymerases (NS5 proteins of DENV3, TBEV, JEV, WNV, ZIKV, YFV); format: biochemical, flaviviruses

Sequence of YFV polymerase (NS5 RdRp) (P03314 2507-3411 limits assumed): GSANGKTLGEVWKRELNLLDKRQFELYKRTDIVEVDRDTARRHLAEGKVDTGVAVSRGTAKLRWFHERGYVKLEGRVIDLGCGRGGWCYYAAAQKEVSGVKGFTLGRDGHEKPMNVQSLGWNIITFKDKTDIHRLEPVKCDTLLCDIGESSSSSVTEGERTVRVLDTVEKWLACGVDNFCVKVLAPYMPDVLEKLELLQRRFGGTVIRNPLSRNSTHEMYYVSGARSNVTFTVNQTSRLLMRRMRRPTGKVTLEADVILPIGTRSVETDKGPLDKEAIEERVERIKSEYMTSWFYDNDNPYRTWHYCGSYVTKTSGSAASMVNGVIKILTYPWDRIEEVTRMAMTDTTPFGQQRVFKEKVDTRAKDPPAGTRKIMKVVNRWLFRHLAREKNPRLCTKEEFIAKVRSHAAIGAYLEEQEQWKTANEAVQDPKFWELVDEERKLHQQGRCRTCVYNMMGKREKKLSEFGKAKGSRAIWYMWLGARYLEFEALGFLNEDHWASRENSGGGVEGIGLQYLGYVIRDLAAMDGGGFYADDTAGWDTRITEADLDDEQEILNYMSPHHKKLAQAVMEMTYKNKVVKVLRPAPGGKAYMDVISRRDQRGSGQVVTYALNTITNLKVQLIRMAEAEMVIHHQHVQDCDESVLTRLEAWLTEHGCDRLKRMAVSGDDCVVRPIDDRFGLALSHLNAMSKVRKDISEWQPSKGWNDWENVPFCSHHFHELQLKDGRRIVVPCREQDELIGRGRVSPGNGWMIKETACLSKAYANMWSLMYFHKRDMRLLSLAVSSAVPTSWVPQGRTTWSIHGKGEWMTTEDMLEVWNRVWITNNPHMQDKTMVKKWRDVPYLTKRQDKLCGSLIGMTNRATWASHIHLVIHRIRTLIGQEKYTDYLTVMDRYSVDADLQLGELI

CCC(CC)COC(=O)[C@H](C)N[P@](=O)(OC[C@H]1O[C@@](C#N)(c2ccc3c(N)ncnn23)[C@H](O)[C@@H]1O)Oc1ccccc1 [remdesivir, Remdesivir]
IC50 [1]: 260 ± 30 nM | IC50s range in words, flaviviral RdRps [2]: hundreds of nanomolar to single digit micromolar | IC50 ([2]; read-out: IC50 range, all the tested flaviviral polymerases): 200 to 2200 nM | incorporation into newly synthesized RNA chain / chain termination [3]: able to incorporate several (five) remdesivir molecules into the newly synthesized RNA chain and finish the primer elongation reaction
